Drawing on ChEMBL document CHEMBL3627672, “Structure-activity relationship study of syringolin A as a potential anticancer agent” (Bioorg Med Chem Lett, 2015), this text covers IC50 and Ki for 15 molecules.

Molecules are shown by their SMILES.

The test system of experiment [1] is A-431. Briefly: Antiproliferative activity against human A431 cells after 72 hrs by oxyluciferin luminescence assay. To be noted: A-431, 72 h.
The nature of experiment [2]: Antiproliferative activity against human TOV21G cells after 72 hrs by oxyluciferin luminescence assay.
A short description of experiment [3]: Antiproliferative activity against human RPMI8266 cells after 72 hrs by oxyluciferin luminescence assay. The settings on record: RPMI8266, 72 h.
Experiment [4] deals with RKO. Briefly: Antiproliferative activity against human RKO cells after 72 hrs by oxyluciferin luminescence assay.
The subject of experiment [5] is CCRF-CEM. Briefly: Antiproliferative activity against human CCRF-CEM cells after 72 hrs by oxyluciferin luminescence assay.
The subject of experiment [6] is HCT-116. Briefly: Antiproliferative activity against human HCT116 cells after 72 hrs by oxyluciferin luminescence assay. The settings on record: HCT-116, 72 h.
Experiment [7] in a line: Cytotoxicity against human MM1S cells. To be noted: MM1.S. Type of experiment: functional, cell-based.
The target in experiment [8] is T1, Proteasome Macropain subunit MB1 (Homo sapiens, UniProt P28074).
T1 sequence (P28074 whole entry): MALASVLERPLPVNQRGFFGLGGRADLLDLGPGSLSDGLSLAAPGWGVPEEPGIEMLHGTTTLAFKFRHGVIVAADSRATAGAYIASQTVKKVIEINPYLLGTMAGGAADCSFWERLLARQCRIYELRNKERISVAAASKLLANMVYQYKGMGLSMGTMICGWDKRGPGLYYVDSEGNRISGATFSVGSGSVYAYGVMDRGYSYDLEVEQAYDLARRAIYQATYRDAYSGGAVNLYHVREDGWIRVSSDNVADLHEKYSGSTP
Briefly: Inhibition of proteasome beta-5 (unknown origin).

Experiment [9] can be described thus: Cytotoxicity against human RPMI8266 cells.

With `CC(C)C[C@H](NC(=O)[C@H](CCc1ccccc1)NC(=O)CN1CCOCC1)C(=O)N[C@@H](Cc1ccccc1)C(=O)N[C@@H](CC(C)C)C(=O)[C@@]1(C)CO1` [CARFILZOMIB], the IC50 in experiment [1] was found to be 23.8 nM; in experiment [2] it was 23.8 nM; in experiment [3] it was 13.9 nM; in [4], 27.1 nM; in experiment [5], 6.1 nM; in experiment [6], 19.3 nM.
As to `CCCCCCCCCC(=O)N[C@@H](CC1CCCCC1)C(=O)N[C@H]1/C=C/CCNC(=O)/C=C/[C@H](C(C)C)NC1=O`, the half-inhibitory concentration (IC50) in [1] is 52.8 nM; in experiment [2], 48.9 nM; in [3], 21 nM; in experiment [4] it was 35.1 nM; in experiment [5], 21.4 nM; in experiment [6], 38.6 nM.
In the case of `CCCCCCCC(=O)N[C@@H](Cc1ccccc1)C(=O)N[C@H]1/C=C/CCNC(=O)/C=C/[C@H](C(C)C)NC1=O`, the concentration for half-maximal inhibition (IC50) in experiment [1] came out at 20.2 nM; in experiment [2], 19 nM; in experiment [3], 9.9 nM; in [4], 14.8 nM; in experiment [5], 6.6 nM; in experiment [6], 14 nM.
With `CCCCCCC(=O)N[C@@H](Cc1ccccc1)C(=O)N[C@H]1/C=C/CCNC(=O)/C=C/[C@H](C(C)C)NC1=O`, the IC50 in experiment [1] came out at 57.7 nM; in [2], 60.7 nM; in experiment [3], 18.9 nM; in experiment [4], 33.4 nM; in experiment [5], 11.6 nM; in [6], 24.5 nM.
For the molecule `CCCCC(=O)N[C@@H](Cc1ccccc1)C(=O)N[C@H]1/C=C/CCNC(=O)/C=C/[C@H](C(C)C)NC1=O`, the IC50 in [1] worked out at 413 nM; in [2] it was 427 nM; in experiment [3] it was 138 nM; in [4], 415 nM; in [5], 61.1 nM; in [6], 402 nM.
For `CC(C)[C@H](NC(=O)N[C@H](C(=O)N[C@H]1/C=C/CCNC(=O)/C=C/[C@H](C(C)C)NC1=O)C(C)C)C(=O)O`, the IC50 in experiment [7] was determined as 8500 nM. This molecule yielded a Ki in experiment [8] of 843 nM.
Regarding `CCCCCCCCCC(=O)N[C@@H](Cc1ccsc1)C(=O)N[C@H]1/C=C/CCNC(=O)/C=C/[C@H](C(C)C)NC1=O`, the IC50 is 15 nM in [1]; 10.2 nM in [2]; 5.7 nM in [3]; 11.3 nM in experiment [4]; 4.2 nM in [5]; 9.1 nM in [6].
As to `CCCCCCCCCC(=O)N[C@@H](Cc1ccccc1Cl)C(=O)N[C@H]1/C=C/CCNC(=O)/C=C/[C@H](C(C)C)NC1=O`, the 50% inhibitory concentration (IC50) in [1] was 9.9 nM; in experiment [2] it was 7.1 nM; in experiment [3], 8.8 nM; in [4] it was 7.4 nM; in experiment [5], 8.2 nM; in experiment [6] it was 8.7 nM.
Consider `CCCCCCCCCC(=O)N[C@@H](Cc1cccc(Cl)c1)C(=O)N[C@H]1/C=C/CCNC(=O)/C=C/[C@H](C(C)C)NC1=O`, for which the concentration for half-maximal inhibition (IC50) in experiment [1] was determined as 18.4 nM; in experiment [2], 13.8 nM; in [3], 9.4 nM; in [4], 14.9 nM; in experiment [5] it was 5.2 nM; in experiment [6] it was 15.6 nM.
Regarding `CCCCCCCCCCC(=O)N[C@@H](Cc1ccccc1)C(=O)N[C@H]1/C=C/CCNC(=O)/C=C/[C@H](C(C)C)NC1=O`, the IC50 in [1] worked out at 38.2 nM; in [2], 19.3 nM; in [3], 14.4 nM; in experiment [4], 19.2 nM; in [5] it was 7.4 nM; in experiment [6], 36 nM.
As to `CCCCCCCCCC(=O)N[C@@H](Cc1ccc(-c2ccccc2)cc1)C(=O)N[C@H]1/C=C/CCNC(=O)/C=C/[C@H](C(C)C)NC1=O`, the IC50 in experiment [1] was determined as 21.9 nM; in experiment [2], 16.8 nM; in experiment [3], 19.7 nM; in experiment [4], 30.4 nM; in experiment [5], 12.3 nM; in experiment [6] it was 27.1 nM.
Take `CCCCCCCCCC(=O)N[C@H](CC(=O)N[C@H]1/C=C/CCNC(=O)/C=C/[C@H](C(C)C)NC1=O)Cc1ccccc1`: the IC50 in experiment [1] was found to be 191 nM; in experiment [2] it was 212 nM; in [3] it was 255 nM; in experiment [4] it was 244 nM; in [5], 221 nM; in experiment [6], 434 nM.
Consider `CCCCCCCCCC(=O)N[C@@H](Cc1ccccc1)C(=O)N[C@H]1/C=C/CCNC(=O)/C=C/[C@H](C(C)C)NC1=O`, for which the IC50 came to 14.1 nM in experiment [1]; 12.3 nM in experiment [2]; 9 nM in experiment [3]; 11.8 nM in [4]; 4.3 nM in experiment [5]; 12.6 nM in experiment [6]. In experiment [9], this molecule showed a half-inhibitory concentration (IC50) of 2.2 nM.
For the molecule `CCCCCCCCC(=O)N[C@@H](Cc1ccccc1)C(=O)N[C@H]1/C=C/CCNC(=O)/C=C/[C@H](C(C)C)NC1=O`, the IC50 in experiment [1] is 18.2 nM; in experiment [2] it was 10.4 nM; in experiment [3], 8.2 nM; in experiment [4], 8.6 nM; in [5], 1.8 nM; in experiment [6], 7.1 nM.
As to `CCCCCCCCCC(=O)N[C@@H](Cc1ccncc1)C(=O)N[C@H]1/C=C/CCNC(=O)/C=C/[C@H](C(C)C)NC1=O`, the 50% inhibitory concentration (IC50) in experiment [1] is 50.3 nM; in experiment [2] it was 14.5 nM; in experiment [3], 72.6 nM; in experiment [4], 47.3 nM; in [5] it was 35.7 nM; in experiment [6] it was 56.3 nM.
